Results on three compounds are retold here after patent publication EP4656194A1, “COMPOSITION FOR PREVENTING OR TREATING POST-TRAUMATIC STRESS DISORDER, COMPRISING PHOSPHODIESTERASE TYPE 5 INHIBITOR AS ACTIVE INGREDIENT” (Aribio Co., Ltd, priority 2023, dated 2024).

In assay [1] the test system is object recognition and memory. Nature of the assay: Novel object recognition test. It is filed as in vivo, male ICR mice. The following applies: 12 MPK p.o. once daily, eight days after drug administration; control group 49.0%. As for the experimental part:
(§1) Twenty-eight male ICR mice, 5 weeks old, weighing approximately 27-30 g, were used. The animals were housed in a controlled environment with a temperature of 26.8 ± 0.5°C, relative humidity of 48.4 ± 1.7%, and lighting from 07:00 to 19:00. They were fed a standard diet (AIN-93G diet) and given free access to drinking water. After 7 days of acclimation and habituation, healthy animals were selected for the experiments.
(§2) Mirodenafil was dissolved in 10 mL of distilled water to prepare a 12 mg/kg (MPK) solution. Sildenafil and tadalafil were similarly prepared at 12 MPK each.
(§3) • 1) Control group (n=7): p.o. administration of distilled water (D.W.) • 2) Experimental group 1 (n=7): p.o. administration of mirodenafil (12 MPK) • 3) Experimental group 2 (n=7): p.o. administration of sildenafil (12 MPK) • 4) Experimental group 3 (n=7): p.o. administration of tadalafil (12 MPK)
(§4) Following 7 days of acclimation, the control group received distilled water orally once daily for 15 days, and the experimental groups received their respective drugs orally once daily for 15 days.
Mice were placed in the center of a rat cage and allowed to explore freely for 5 minutes (accommodation). Afterward, mice rested in their home cages.
Following accommodation, two identical objects (Object A and Object B) of the same color, shape, and size were placed at fixed intervals in the cage. […]
Twenty-four hours after Training 1, mice were reintroduced to the cage with the same objects (A and B) spaced similarly. Exploration time of each object was recorded for 5 minutes. […]
Twenty-four hours after Training 2, mice were introduced to the cage containing one familiar object (A) and one novel object (C) differing in color, shape, or size. Exploration time was recorded for 5 minutes. The percentage of time spent exploring each object was calculated using the following formula: (Formula to calculate % exploration time for objects) • i. […]
(§5) Data were expressed as mean ± standard error of the mean (SEM). Statistical significance was assessed by T-test with thresholds of P < 0.01 or *0.01 < P < 0.05. […]

Assay [2] concerns spatial recognition and memory. The assay can be described thus: Y-maze test. It is filed as in vivo, male ICR mice. The settings on record: 12 MPK p.o. once daily, ten days after drug administration; control 61.8%. As for the experimental part:
as §1, §2, §3, §4
Mice were placed at the center of a Y-maze and allowed to explore for 8 minutes. Entries were recorded when all four paws fully entered an arm. The maze was cleaned with 70% alcohol between tests. Spontaneous alternation behavior was analyzed using the Yamada statistical method. An alternation was counted when the mouse consecutively entered three different arms. The percentage of spontaneous alternation was calculated as (number of alternations / total arm entries) × 100. • iii. Recording data(ex): BCABCBABCBCABBCACBACCABCABCACBCABC • iv. [formula]
Data were expressed as mean ± standard error of the mean (SEM). Statistical significance was assessed by T-test with thresholds of P < 0.01 or *0.01 < P < 0.05. Data analysis and plotting were performed using Prism 8 software.

The subject of assay [3] is context-specific fear memory. The assay can be described thus: Passive avoidance test. In kind it is in vivo. The following applies: 12 MPK p.o. once daily, after 15 doses, followed by electric shock; male ICR mice. As for the experimental part: as §1, §2, §3, §4
The passive avoidance step-through apparatus was illuminated in the bright chamber at 50% lightness. Mice were placed inside and allowed to move freely between the bright and dark chambers for 5 minutes. After 5 minutes, accommodation was terminated, and mice rested in their home cages.
Mice that completed accommodation were placed in the bright chamber under the same lighting conditions. When the mouse fully entered the dark chamber (all four paws on the floor), an electric shock (0.4 mA, 2 seconds, repeated twice with a 2-second interval) was delivered (maximum latency: 65 seconds, single session). […]
Mice that completed training were placed again in the bright chamber under the same conditions. The latency to enter the dark chamber (all four paws touching the floor) was recorded without shock (maximum latency: 300 seconds). […]
as §5

For `CN1CC(=O)N2[C@H](c3ccc4c(c3)OCO4)c3[nH]c4ccccc4c3C[C@@H]2C1=O` [tadalafil], the “exploration of novel objects” value in assay [1] is on record as 57.0%. Besides, the spontaneous alternation rates in assay [2] amounted to 59.6%. The “decrease of latency time compared to the control” value in assay [3] is recorded as 63.2%.
Regarding `CCCc1nn(C)c2c(=O)[nH]c(-c3cc(S(=O)(=O)N4CCN(C)CC4)ccc3OCC)nc12` [sildenafil], the “exploration of novel objects” value in assay [1] was determined as 57.9%. This compound displayed a spontaneous alternation rates in assay [2] of 60.7%. The “decrease of latency time compared to the control” value in assay [3] is given as 55.5%.
In the same order, the values of `CCCOc1ccc(S(=O)(=O)N2CCN(CCO)CC2)cc1-c1nc2c(CCC)cn(CC)c2c(=O)[nH]1` [mirodenafil] are 53.7%, 58.4% and 73.5%.
